Our source for the IC50 values is patent publication US7465745B2, “Cathepsin S inhibitors” (Boehringer Ingelheim Pharmaceuticals, Inc., priority 2003, dated 2008).

The structures appear in SMILES notation.

In general, IC50 refers to the concentration that inhibits the measured activity by half.

The assay concerns the target T1, Human recombinant cathepsin S (Homo sapiens, UniProt P25774).
T1 construct: made in house; host or cells: Sf9 insect cells (baculovirus, pFastBac1)
Put plainly: Inhibition of Cathepsin S. Type of assay: biochemical. Particulars: 10 nM enzyme, pH 6.5, 37° C., fluorescence 360/460 nm.

T1 sequence (P25774 115-331): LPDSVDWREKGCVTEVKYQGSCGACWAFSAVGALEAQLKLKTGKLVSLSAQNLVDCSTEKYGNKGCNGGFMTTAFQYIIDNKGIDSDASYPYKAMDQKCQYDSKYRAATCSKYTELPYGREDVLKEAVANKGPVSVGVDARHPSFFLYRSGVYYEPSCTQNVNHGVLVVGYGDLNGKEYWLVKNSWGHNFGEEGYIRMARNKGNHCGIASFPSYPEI
Protocol: U937 RNA was subjected to reverse transcriptase/polymerase chain reaction with primer A (5′[sequence] 3′) and primer B (5′[sequence] 3′) designed to specifically amplify the cathepsin S cDNA. The resulting 900 bp DNA fragment was subcloned into pGEM-T (Promega) and sequenced to confirm its identity. This construct was used for all subsequent manipulations.
The ligation mixture was used to transform DH5a competent cells (GibcoBRL) and plated on LB plates containing 100 ug/ml ampicillin. Colonies were grown in overnight cultures of LB media containing 50 ug/ml Ampicillin, plasmid DNA isolated and correct insert confirmed by restriction enzyme digestion. Recombinant pFastBac donor plasmid was transformed into DH10Bac competent cells (GibcoBRL). Large white colonies were picked from LB plates containing 50 ug/ml kanamycin, 7 ug/ml gentamicin, 10 ug/ml tetracycline, 100 ug/ml Bluo-gal, and 40 ug/ml IPTG. DNA was isolated and used to transfect Sf9 insect cells using CellFECTIN reagent (GibcoBRL). Cells and supernatant were harvested after 72 hours. Viral supernatant was passaged twice and presence of Cat S confirmed by PCR of the supernatant. […]
Human recombinant cathepsin S expressed in Baculovirus is used at a final concentration of 10 nM in buffer. […] Compound activity is measured by diminished fluorescence compared to DMSO control when read at 360 nm excitation and 460 nm emission.

Regarding `CCC(C)(C)CC[C@@H](NC(=O)N1CCOCC1)C(=O)NC1(C#N)CCN(C)CC1` [Morpholine-4-carboxylic acid [(R)-1-(4-cyano-1-methyl-piperidine-4-ylcarbamoyl)-4,4-dimethyl-hexyl]-amide], the IC50 is greater than 100 nM.
